Assay results taken from the NIST ThermoML archive (doi:10.1016/j.fluid.2013.06.021).

Test: xn = mol fraction of the nth substance listed
Conditions: 101 kPa, Liquid; for speed of sound: Sing-around technique in a fixed-path interferometer; for mass density: Vibrating tube method; for viscosity: Capillary tube (Ostwald / Ubbelohde) method

CCCCOCCO [2-butoxyethan-1-ol] + CCCCO
Conditions	mass density, 293.15 K [kg/m3]	mass density, 298.15 K [kg/m3]	speed of sound, 293.15 K [m/s]	speed of sound, 298.15 K [m/s]	speed of sound, 303.15 K [m/s]	viscosity, 298.15 K [mPa·s]	viscosity, 303.15 K [mPa·s]
x1 = 0.0516	816.39	812.543	1262.2	1245.2	1228.5	2.586	2.269
x1 = 0.1011	822.44	818.58	1266.6	1249.7	1233	2.553	2.243
x1 = 0.1535	828.64	824.722	1271.1	1254.2	1237.5	2.536	2.235
x1 = 0.2027	834.27	830.281	1275.2	1258.3	1241.5	2.524	2.234
x1 = 0.2537	839.84	835.832	1279.2	1262.3	1245.5	2.516	2.229
x1 = 0.3027	844.99	840.96	1282.9	1266.1	1249.1	–	–
x1 = 0.3028	–	–	–	–	–	2.516	2.235
x1 = 0.4	854.57	850.503	1289.8	1272.9	1255.9	2.527	2.255
x1 = 0.5055	864.12	860.043	1296.7	1279.7	–	2.555	2.303
x1 = 0.6054	872.48	868.393	1302.5	1285.6	–	2.592	2.345
x1 = 0.7025	880.07	875.94	1307.9	1290.9	–	2.645	2.401
x1 = 0.8042	887.49	883.317	1313.2	1296.2	–	2.703	2.475
x1 = 0.8552	891.03	886.83	1315.9	1298.8	–	2.743	2.518
x1 = 0.906	894.44	890.248	1318.5	1301.4	–	2.785	2.564
x1 = 0.9526	897.48	893.29	1320.9	1303.8	–	2.835	2.607
